Like-named read-outs stand apart in the source and are kept apart here.
Assays:
[1] = system: PSMB9-FLAG (immunoproteasome); assay: Immunoproteasome activity assay on immunoprecipitated PSMB9-FLAG (Ac-PAL-AMC); format: biochemical, human; conditions: n=3; for PSMB9 activity at single concentration: 100 nM for 30 min, Ac-PAL-AMC
Excerpt: Also refer to Supplementary Figure S2.

HEK293T cells = assay: Immunoblot of proteasome substrates and ubiquitylated proteins in HEK293T cells; format: cell-based, human
Experimental: Data were normalized to corresponding GAPDH levels. […] (D) HEK-293T cells were treated in the absence (DMSO) or presence of 0.5 μM of TIR-199 for 6 h. Cell lysates were subjected to immunoblotting with the indicated antibodies. Similar results were obtained in three independent replicates. (E) HEK-293T cells were treated in the absence (DMSO) or presence of either 0.1 μM of bortezomib (BTZ) or 0.2 μM of TIR-199 for 4 h. Cell lysates were subjected to immunoblotting with the indicated antibodies. Similar results were obtained in two independent replicates.

[2] = target: T1, PSMB5-FLAG (chymotryptic-like activity, constitutive 26S proteasome) (Homo sapiens, UniProt P20618+P28074); assay: Proteasome activity assay on immunoprecipitated WT PSMB5-FLAG (Suc-LLVY-AMC); format: biochemical; conditions: for proteasomal activity of WT PSMB5: Suc-LLVY-AMC, relative to DMSO, n=3
T1 construct: made in house; host or cells: HEK293 cells stably expressing PSMB5-FLAG; FLAG immunoprecipitate
Experimental: (B) Wildtype (WT) PSMB5-FLAG was immunoprecipitated from HEK293 cells stably expressing PSMB5-FLAG. […] Also refer to Supplementary Figure S1. (D) HEK-293T cells were treated in the absence (DMSO) or presence of 0.5 μM of TIR-199 for 6 h. Cell lysates were subjected to immunoblotting with the indicated antibodies. […] (E) HEK-293T cells were treated in the absence (DMSO) or presence of either 0.1 μM of bortezomib (BTZ) or 0.2 μM of TIR-199 for 4 h. Cell lysates were subjected to immunoblotting with the indicated antibodies.

[3] = system: MM.1S myeloma-mediated bone degeneration in NSG mice; assay: MM.1S/NSG systemic myeloma xenograft, μCT of femurs; format: in vivo, mouse; conditions: 5 mg/kg i.p. daily for 4 days
[4] = system: endogenous proteasome in MM.1S cells; assay: Chymotryptic-like proteasome activity in lysates of treated MM.1S cells; format: cell-based, human; conditions: 0.5 μM TIR-199 for 0.5 h vs DMSO, Suc-LLVY-AMC, n=3
[5] = target: PSMB8-FLAG (immunoproteasome) (Homo sapiens, UniProt P20618+P28062); assay: Immunoproteasome activity assay on immunoprecipitated PSMB8-FLAG (Ac-ANW-AMC); conditions: 100 nM for 30 min; Ac-ANW-AMC; n=3
Experimental: (§1) Immunoproteasome activity assays were carried out as stated previously [32]. Briefly, HEK293 cells transiently overexpressing FLAG-tagged PSMB9 or PSMB8 were treated with IFNγ (100 ng/ml; 48 h) to induce expression of immunoproteasome. […] Immunoproteasomes were affinity purified using FLAG agarose from 2 mg of cell lysate. Peptidase activities of purified immunoproteasomes were assayed using 100 μM fluorogenic peptide substrates Ac-ANW-AMC for PSMB8 and Ac-PAL-AMC for PSMB9 (Boston Biochem) for 30 min.
(§2) (B) PSMB8 or PSMB9 was immunoprecipitated for 48 h in 100 ng/ml IFNγ-stimulated HEK293 cells transiently overexpressing either PSMB8-FLAG or PSMB9-FLAG. […] Fluorescence signal upon release of AMC was measured in a Tecan plate reader. […] Results are means ± S.D. for n=3 replicates.

[6] = target: PSMB8-FLAG (immunoproteasome) (Homo sapiens, UniProt P28062); assay: as above
Experimental: as §1, §2

[7] = system: panel of 50 protein kinases; assay: Kinase specificity profiling, panel of 50 protein kinases (33P-ATP); format: biochemical; conditions: 1 μM TIR-199 (20-fold PSMB5 IC50); triplicate reactions
Experimental: TIR-199 specificity profiling assays were carried out at The International Centre for Protein Kinase Profiling (http://www.kinase-screen.mrc.ac.uk/). TIR-199 kinase specificity was determined against a panel of 50 protein kinases as described previously. The assay mixes and ^33P-γATP were added by Multidrop 384 (Thermo). Results are presented as a percentage of kinase activity in DMSO control reactions. Protein kinases were assayed in vitro with 1 μM final concentration of TIR-199 and the results are presented as an average of triplicate reactions ± SD or in the form of comparative histograms.
Kinase profiling of TIR-199 at 1 μM was carried out against the panel of 50 kinases at the
International Centre for Protein Kinase Profiling (http://www.kinase-screen.mrc.ac.uk/).
(1 picture or pasted object on this page, not shown here)

[8] = system: proteasome in primary CD138+ myeloma cells; assay: Chymotryptic-like proteasome activity in primary CD138+ myeloma cells of patients; format: cell-based, human; conditions: CD138+ cells of two refractory patients; 500 nM for 0.5 h; Suc-LLVY-AMC; n=3
Excerpt: CD138^+ myeloma cells were purified from the bone marrow aspirates which were obtained from HIPAA compliant de-identified consenting patients in accordance with Institutional Review Board protocol: 181027 approved on 9 October 2019 at UCSD. The bone marrow aspirates were kindly provided by Dr. Caitlin Costello, Moores Cancer Center, UCSD. CD138^+ primary myeloma cells were purified from fresh bone marrow aspirates of multiple myeloma patients using EasySep™ Human Whole Blood and Bone Marrow CD138 Positive Selection Kit II (StemCell Technologies) following manufacturer’s instructions. Viable cells were collected for further analyses.
Figure 1 TIR-199 is a syrbactin-based constitutive proteasome inhibitor (A) Chemical structure of syrbactin derivative TIR-199. (B) Wildtype (WT) PSMB5-FLAG was immunoprecipitated from HEK293 cells stably expressing PSMB5-FLAG. […] (C) Proteasome activity in lysates from MM.1S and primary CD138^+ myeloma cells purified from two patients treated with DMSO or 0.5 μM TIR-199 for 0.5 h was measured with Suc-LLVY-AMC. *P<0.05; **P<0.01; ***P<0.001 (compared with control treated, two-tailed paired Student’s t test, mean ± SD from n=3 replicates). Also refer to Supplementary Figure S1. (D) HEK-293T cells were treated in the absence (DMSO) or presence of 0.5 μM of TIR-199 for 6 h. Cell lysates were subjected to immunoblotting with the indicated antibodies. […]

[9] = system: PSMB5 (AA/TV) bortezomib-resistant mutant; conditions: Suc-LLVY-AMC, relative to DMSO, n=3
A549 cells = assay: Cytotoxicity assay (MTS), A549; format: cell-based; conditions: 48 h
Experimental: MTS absorbance was measured in a Tecan plate reader.

[10] = vs vehicle, distal and proximal femur combined, n=6 femurs

Structure (SMILES) | PSMB9 activity at single concentration [1] | accumulation of ubiquitylated proteins (immunoblot) (HEK293T cells; 200 nM TIR-199 for 4 h) | proteasome substrates p62, IKBα and p21 protein levels (immunoblot) (HEK293T cells; 250 nM TIR-199 for 6 h (legend: 0.5 μM)) | IC50 [2] | proteasomal activity of WT PSMB5 ([2]; 100 nM TIR-199) | myeloma-mediated bone degeneration ([3]; femurs 7 days after dosing) | % bone volume over total volume (% BV/TV), femur μCT [3, 10] | trabecular number (Tb.N), femur μCT [3, 10] | trabecular separation (Tb.Sp), femur μCT [3, 10] | chymotryptic-like endogenous proteasome activity in cell lysates [4] | PSMB8 activity at single concentration [5] | IC50 [6] | inhibition of 50 kinases in vitro [7] | chymotryptic-like proteasome activity compared with DMSO [8] | proteasomal activity of AA/TV PSMB5 ([9]; 100 nM TIR-199) | sensitivity to TIR-199 within lung cancer panel (A549 cells) | caspase-like activity of PSMB9 ([1]; up to 250 nM TIR-199, 100 μM Ac-PAL-AMC) | accumulation of ubiquitylated proteins (immunoblot) (HEK293T cells; 100 nM bortezomib for 4 h) | proteasomal activity of WT PSMB5 ([2]; 10 nM bortezomib) | proteasomal activity of AA/TV PSMB5 ([9]; 10 nM bortezomib)
COc1ccc(C[C@H](NC(=O)[C@H](C)NC(=O)CN2CCOCC2)C(=O)N[C@@H](Cc2ccccc2)C(=O)C2(C)CO2)cc1 (stereo in doubt) [ONX-0914, reference compound] | did not inhibit | – | – | – | – | – | – | – | – | – | – | – | – | – | – | – | – | – | – | –
CCCCCCCCCCCCNC(=O)N[C@H](C(=O)N[C@H]1/C=C/CCNC(=O)/C=C/[C@H](C)NC1=O)C(C)C [TIR-199] | did not inhibit | accumulation of ubiquitylated proteins | protein levels increased | 50 nM | equally sensitive | slowed down the myeloma-mediated bone degeneration process | not significant | higher trabecular number | significantly lower trabecular separation | inhibition of chymotryptic-like endogenous proteasome activity | inhibited PSMB8 potently | ~100 nM | does not inhibit | decreased significantly | equally sensitive | relatively more resistant | largely more resistant | – | – | –
CC(C)C[C@H](NC(=O)[C@H](Cc1ccccc1)NC(=O)c1cnccn1)B(O)O [bortezomib, reference compound] | – | – | – | – | – | – | – | – | – | – | – | – | – | – | – | – | – | accumulation of ubiquitylated proteins | dramatic reduction in proteasomal activity | significant resistance

Reference: article PMC8837819, “Syrbactin-class dual constitutive- and immuno-proteasome inhibitor TIR-199 impedes myeloma-mediated bone degeneration in vivo” (Bioscience Reports, 2022)
